# Experimental data taken from patent publication US12083133B2, “Use of cholecalciferol as adjuvant in the treatment of muscular dystrophies” (ABIOGEN PHARMA SPA, priority 2021, dated 2024).
# “Also recorded” adds a separate entry of the source.
# Key:
# muscular dystrophies = details: state of the art; cited from earlier work
# Duchenne dystrophy = details: state of the art; optimal dose 0.75 mg/kg per day; cited from earlier work
# [1] = system: muscle tissue of mdx mice; assay: Histopathologic analyses of muscle tissue (haematoxylin-eosin), graded 0 (absent) to 3 (very high); type: in vivo, mouse
# Method: These analyses were performed on the material taken during necropsy performed after the sacrifice of the animals of groups 7 and 8. In particular, the quadriceps femoris, the diaphragm and the anterior tibial muscle were collected.
# The samples taken and fixed were decalcified, embedded in paraffin according to the known technique, cut into 5-7 μm thick sections and stained with haematoxylin-eosin. The following forms of alteration were evaluated at the muscle tissue level, each of which was classified according to a grade from 0 (absent) to 3 (very high): • Atrophy • Degeneration • Inflammation • Oedema • Presence of adipose tissue • Hypertrophy • Regeneration • Mineralization Results
# MyoD = assay: Immunohistochemistry with anti-MyoD antibody (proliferating myoblasts); type: in vivo, mouse; details: mdx mice, 24 weeks of treatment
# Method: (§1) Skeletal muscle growth and regeneration are attributable to satellite cells, which are stem cells resident in the basal lamina surrounding each myofiber. The expression of Pax7 (Paired-Box Transcription Factor 7) is constitutive, that is, this factor is expressed in these cells both in the quiescent and in the activation phase. When satellite cells are activated, they also co-express MyoD, which correlates with active muscle regeneration.
# (§2) The expression of Pax7 was then analysed for the identification of satellite cells (progenitors) located under the basal lamina of myofibers, and of MyoD, expressed by myoblasts during proliferation.
# (§3) Analyses were performed on the groups after 24 weeks of treatment.
# (§4) Samples for immunohistochemistry were included in OCT, placed in isopentane, frozen with liquid nitrogen and kept at −80° C. Anti-Pax7 antibodies were used to label satellite cells and anti-MyoD for myoblasts.
# [2] = system: muscle fibres of mdx mice; assay: Fluorescence microscopy of muscle fibres (DAPI, anti-WGA); type: in vivo, mouse; details: 12 weeks of treatment, versus untreated control mdx mice
# Excerpt: In fluorescence microscopy analyses DAPI staining (blue) was used for nuclei, while an anti-WGA antibody (WGA, or wheat germ agglutinin, Alexa Fluor® 594 conjugate), which stains cell membranes in red, was used to mark muscle fibres.
# Pax7 = assay: Immunohistochemistry with anti-Pax7 antibody (satellite cells); type: in vivo, mouse
# Method: as §1, §2, §3, §4
# mdx mice = assay: Four limb hang test; type: in vivo, mouse
# Excerpt: For the study, it was chosen as experimental model the mdx (Muscular Dystrophy X-linked) mouse, which has long been used to evaluate the efficacy of drugs against muscular dystrophy and other degenerative diseases that affect skeletal muscles, inducing functional loss. These mice represent the reference animal model for clinical projections, also because they made it possible to overcome the obstacle of the limited availability of human biopsy material for experimental purposes.
# The model responds to both steroidal and non-steroidal anti-inflammatory and immunosuppressive treatments and it is also used to study the differential gene and protein expression induced by the various treatments. The test system altogether consisted in 50 C57BL/10ScSn-Dmdxdx/J male mice and 27 C57/BL male mice of about 4-5 weeks of age.
# After a short pre-housing period (about 4 days after arrival in the animal enclosure), the animals were subjected to baseline behavioural analyses, as described hereafter. The start time of the analyses, after the pre-housing period, is defined zero time (t=0).
# Mice were also subjected to physical exercise with a rotating treadmill (Ugo Basile, Milan) for 15 minutes twice a week at a speed of 12 m/min, to standardize the pathology.
# This test was performed at the beginning and at the end of the trial (baseline and final). It is performed using a device that uses a steel grid to measure the mouse's ability to support itself on all four limbs, opposing the force of gravity. The animal is placed on the grid (40×40 cm, delimited by iron strips placed perpendicular to the grid and 5 cm high, with 1 cm squares formed by 1 mm diameter steel wire) which is inverted so that the animal finds itself upside down and hangs on with its paws, about 30 cm from the floor. […] The grid is kept in position for a maximum of 5 minutes and the time, in seconds, during which the animal is able to hang with its paws is recorded.
# The results of test are shown in the following table 2 and are expressed in seconds and normalized for the animal's weight. Groups 1-8 reported herein are those described in table 1.
# [3] = cited from earlier work
# [4] = group 8, mdx mice, 175 μg/kg/day once a week, t = 24 weeks, grade 0 to 3
compound,measurement,setting,value
C[C@]12CC[C@H]3[C@@H](CCC4=CC(=O)CC[C@@]43C)[C@@H]1CC[C@@H]2O [testosterone],Efficacy as therapy of muscular dystrophies,muscular dystrophies,ineffective
C[C@]12C=CC(=O)C=C1CC[C@@H]1[C@@H]2C(=O)C[C@@]2(C)[C@H]1CC[C@]2(O)C(=O)CO [prednisone],Delay of the progression time of Duchenne dystrophy,Duchenne dystrophy,more than 3 years
C=C1CC[C@H](O)C/C1=C/C=C1\CCC[C@]2(C)[C@@H]([C@H](C)CCCC(C)C)CC[C@@H]12 [cholecalciferol],Medium Grading: Atrophy,"[1]; group 8, mdx mice, 175 μg/kg/day once a week, t = 24 weeks, grade 0 (absent) to 3 (very high)",0.44
same,Medium Grading: Degeneration,[1]; [4],0
same,Medium Grading: Hypertrophy,[1]; [4],2.11
same,Medium Grading: Inflammation,[1]; [4],0
same,Medium Grading: Mineralization,[1]; [4],0.33
same,Medium Grading: Oedema,[1]; [4],0.44
same,Medium Grading: Presence of adipose tissue,[1]; [4],0.11
same,Medium Grading: Regeneration,[1]; [4],2.66
same,Microscopic examination of muscle tissue stained with haematoxylin-eosin (in words),[1]; mdx mice treated for 24 weeks,"areas of regeneration and hypertrophy, and only in few cases muscular atrophy, moreover at low levels"
same,Labelling with anti-MyoD antibody / expression of MyoD,MyoD,appears extensive; also recorded: restored the expression of MyoD to levels similar to those of wild-type mice
same,Structure of muscle fibres and position of cell nuclei,[2],cell nuclei distributed both centrally and peripherally and less disrupted muscle fibres; also recorded: visibly less disrupted
same,Positivity of muscle tissue for anti-Pax7 antibody (marker of satellite cells),Pax7; mdx mice treated with cholecalciferol,highly positive
same,Labelling with anti-Pax7 antibody (satellite cells),"Pax7; mdx mice, 24 weeks of treatment, versus vehicle-treated mdx mice",clearly present and localized on the contours of the muscle fibres; also recorded: more evident
same,Time in seconds (normalized for the animal's weight) t = 12 weeks,"mdx mice; group 5, mdx mice, 175 μg/kg/day (7000 IU/day) per os once per week for 12 weeks",0.8 s
same,Time in seconds (normalized for the animal's weight) t = 0,"mdx mice; group 5, mdx mice, baseline before treatment (12-week arm)",0.9 s
same,Time in seconds (normalized for the animal's weight) t = 24 weeks,"mdx mice; group 8, mdx mice, 175 μg/kg/day (7000 IU/day) per os once per week for 24 weeks",0.9 s
same,Time in seconds (normalized for the animal's weight) t = 12 weeks,"mdx mice; group 8, mdx mice, 175 μg/kg/day (7000 IU/day) per os once per week, 24-week arm",1.2 s
same,Time in seconds (normalized for the animal's weight) t = 0,"mdx mice; group 8, mdx mice, baseline before treatment (24-week arm)",1.7 s
same,"Increase in resistance to detachment from the grid, in terms of time, versus untreated mdx animals","mdx mice; mdx mice, test at 24 weeks",80%
same,Blood half-life (T1/2),[3]; estimated,19 to 25 h
same,Functional half-life,[3]; related to slow release from adipose tissue,several weeks
vitamin E,Efficacy as therapy of muscular dystrophies,muscular dystrophies,ineffective
CC(C)(S)[C@@H](N)C(=O)O [penicillamine],Efficacy as therapy of muscular dystrophies,muscular dystrophies,ineffective
